# Patent US7541467B2, “Fluorescent zinc ion sensor” (Sekisui Medical Co., Ltd., priority 2004, dated 2009)
# What was measured:
# [1] = Fluorescence on irradiation with and without added zinc ions; type: physicochemical
# [2] = Titration with zinc ions monitored by ultraviolet and visible absorption spectra; type: binding
# Experimental: TQEN was titrated with zinc ions, and changes of ultraviolet and visible absorption spectra were monitored.
# In the same manner as in Test Example 3, solution of 6OMeTQEN (concentration of 6OMeTQEN: 34 μM) in water-containing DMF (DMF:water=1:1) was titrated with zinc ions (0 to 68 μM), and changes in absorption were monitored by measuring ultraviolet and visible absorption spectra (FIG. 8).
# [3] = NMR titration
# [4] = Fluorescent responses in the presence of various metal ions
SMILES,melting point [°C],"fluorescence wavelength when zinc ions were added ([1]; excitation 340 nm, DMF:water=1:1, 34 μM, zinc ions 0 to 68 μM) [nm]","fluorescence without zinc ions ([1]; irradiated with light of 340 nm, DMF:water=1:1, 34 μM)",absorption wavelength longer than that of TQEN by ([2]; 34 μM in DMF:water=1:1),"absorption wavelength extended to ([2]; 34 μM in DMF:water=1:1, zinc ions 0 to 68 μM)","fluorescence wavelength when zinc ions were added ([1]; excitation 317 nm, DMF or DMF:water=1:1) [nm]",fluorescence without zinc ions ([1]; irradiated with light of 317 nm in DMF or DMF:water=1:1),exchange rate between free and zinc-bound ligand [3],"fluorescence intensity in the presence of cadmium ions, relative to that in the presence of zinc ions [4]"
"COc1ccc2nc(CN(CCN(Cc3ccc4cc(OC)ccc4n3)Cc3ccc4cc(OC)ccc4n3)Cc3ccc4cc(OC)ccc4n3)ccc2c1 [6OMeTQEN, N,N,N′,N′-tetrakis(6-methoxy-2-quinolylmethyl)-ethylenediamine]",168 to 170,410,substantially no fluorescence was emitted,about 20 nm,around 350 nm,,,,
"c1ccc2nc(CN(CCN(Cc3ccc4ccccc4n3)Cc3ccc4ccccc4n3)Cc3ccc4ccccc4n3)ccc2c1 [TQEN, N,N,N′,N′-tetrakis(2-quinolylmethyl)ethylenediamine]",196 to 198,,,,,383,substantially no fluorescence was emitted,slower than the time scale of NMR,about 60%
